# Experimental data as given in article PMC6667648 (Frontiers in Microbiology, 2019).
# Where a SMILES comes first, the peptide text is derived from it. Bridges are numbered along the chain shown (N, C = ends).
# Key:
# [1] = test system: 6 hr MRSA ATCC 1556 biofilm; format: cell-based, Staphylococcus aureus; conditions: preformed (6 h) MRSA biofilm, 16 h treatment, CFU count, three technical replicates
# [2] = test system: Gentamicin resistant P. aeruginosa from passage 30; conditions: gentamicin resistant P. aeruginosa from passage 30 (gentamicin MIC 512 μg/mL)
# Excerpt: (§1) The development of resistance was confirmed if the microorganism started growing at continuously higher concentrations. […] Evaluations were done in duplicate.
# [3] = test system: clindamycin resistant S. aureus from passage 30
# Excerpt: as §1
# [4] = test system: MDR S. epidermidis ATCC 700578 biofilm; format: cell-based; conditions: CFU count
# Protocol: (§2) Biofilms (methicillin-resistant S. epidermidis, MRSE ATCC 51625 and multidrug resistant S. epidermidis MDR-SE ATCC 700578) were established following inoculation of 10^5 CFU/mL in Minimum Essential Media for 6 h or 5 days representing preformed or mature biofilm respectively, in plastic 96-well plates (Costar, Catalog #3595). […] Following test agent incubation, the media (including the planktonic cells) was removed and then the remaining biofilm treated with 50 μL 0.1% Triton X100 followed by agitating the plate on a rocker for 30 min. The biofilm was then disrupted with a 96 well replicator, the resultant mixture vortexed, samples serially diluted, plated on agar plates, and incubated overnight and CFUs subsequently counted. Three technical replicates were performed for each condition tested.
# [5] = test system: methicillin-resistant S. epidermidis biofilm; format: cell-based
# Protocol: as §2
# [6] = test system: murine L929 fibroblast cells; experiment: Fibroblast cytotoxicity, bioluminescence; format: cell-based; conditions: 64 μg/mL (maximum concentration evaluated), 24 h incubation
# Protocol: Non-invasive real-time evaluation of viability, mammalian, and bacterial cells, was performed using bioluminescent human keratinocytes (HaCaT, AddexBio, San Diego, CA) and murine L929 fibroblast cells (ATCC, Manassas, VA). The bioluminescent variants were constructed by transfection with a luciferase gene (RediFect Red-Fluc-Puromycin, Catalog #CL596002) (Hamblin et al., [2003]). […] Each concentration was performed in triplicate. Bioluminescence imaging was performed at pre-specified times (0, 15, and 30 min and 1, 3, 5, 8, and 24 h) and compared to concurrently run vehicle-controls. The 96-well plate was positioned on the stage (12.5-cm field of view) within the in vivo Imaging System (IVIS) imaging system (Caliper Life Sciences, Inc., Hopkinton, MA, USA), with an open emission filter, binning of 4, and f-stop 1, and a 1-min exposure time. The resultant photons emitted from the live cells were quantified using Living Image® software (version 4.3, Caliper Life Sciences, Inc.). Monitoring bioluminescence allows assessment of the kinetics of cellular viability as there is a tight correlation between photon count imaging and viable counts (Kadurugamuwa et al., [2003]).
# MRSA 6381 = experiment: microbe, parasite or virus in culture; format: cell-based, Staphylococcus aureus; conditions: MRSA 6381; 24-h incubation; mean of 3 replicates from 2 independent experiments
# Protocol: (§3) Strains were obtained from American Type Culture Collection (ATCC, Manassas, VA) or the clinical isolate collection at Trideum Biosciences (Frederick, MD, USA). Bioluminescence strains of P. aeruginosa 19660, transfected with the Xen5 luciferase gene, and S. aureus ATCC® 49525™ (Wright), transfected with the Xen36 luciferase gene, were obtained from Perkin Elmer (Hopkinton, MA).
# (§4) A single colony was aseptically picked from an agar overlay and released in 25–30 mL of pre-warmed trypticase soy broth in a culture flask. Each culture was incubated overnight in a 37°C incubator. […] Pathogen growth was measured by absorbance at 600 nm. Four replicas were included for each test agent concentration. […]
# MRSA ATCC 33592 = experiment: microbe, parasite or virus in culture; format: cell-based, Staphylococcus aureus; conditions: MRSA ATCC 33592; 24-h incubation; mean of 3 replicates from 2 independent experiments
# Protocol: as §3, §4
# MRSA 6313 = experiment: microbe, parasite or virus in culture; format: cell-based, Staphylococcus aureus; conditions: MRSA 6313; 24-h incubation; mean of 3 replicates from 2 independent experiments
# Protocol: as §3, §4
# S. aureus B-767 = experiment: microbe, parasite or virus in culture; format: cell-based, Staphylococcus aureus; conditions: B-767, 24 h
# Protocol: as §3, §4
# S. aureus 6061 = experiment: microbe, parasite or virus in culture; format: cell-based, Staphylococcus aureus; conditions: 6061, 24 h
# Protocol: as §3, §4
# A. baumannii ATCC 17978 = experiment: microbe, parasite or virus in culture; format: cell-based, Acinetobacter baumannii; conditions: A. baumannii ATCC 17978; 24-h incubation; mean of 3 replicates from 2 independent experiments
# Protocol: as §3, §4
# A. baumannii 6043 = experiment: microbe, parasite or virus in culture; format: cell-based, Acinetobacter baumannii; conditions: A. baumannii 6043; 24-h incubation; mean of 3 replicates from 2 independent experiments
# Protocol: as §3, §4
# A. baumannii 6838 = experiment: microbe, parasite or virus in culture; format: cell-based, Acinetobacter baumannii; conditions: 6838, 24 h
# Protocol: as §3, §4
# [7] = rat plasma, 40 and 750 ng/mL, storage at −80°C, thaw at ambient temperature min 1 h, six replicates, LC-MS/MS
# E. cloacae 6053 = experiment: microbe, parasite or virus in culture; format: cell-based; conditions: 6053, 24 h
# Protocol: as §3, §4
# E. cloacae 6054 = experiment: microbe, parasite or virus in culture; format: cell-based; conditions: 6054, 24 h
# Protocol: as §3, §4
# C. parapsilosis Y-1763 = experiment: microbe, parasite or virus in culture; format: cell-based; conditions: 24-h incubation, mean of 3 replicates from 2 independent experiments
# Protocol: as §3, §4
# C. parapsilosis Y-1761 = experiment: microbe, parasite or virus in culture; format: cell-based; conditions: 24-h incubation, mean of 3 replicates from 2 independent experiments
# Protocol: as §3, §4
# [8] = pooled normal human serum, 200 μg/mL, 72 h, 37°C, LC-MS/MS, triplicate
# P. aeruginosa ATCC 19660 = experiment: microbe, parasite or virus in culture; format: cell-based, Pseudomonas aeruginosa; conditions: P. aeruginosa ATCC 19660; 24-h incubation; mean of 3 replicates from 2 independent experiments
# Protocol: as §3, §4
# P. aeruginosa ATCC 27853 = experiment: microbe, parasite or virus in culture; format: cell-based, Pseudomonas aeruginosa; conditions: P. aeruginosa ATCC 27853; 24-h incubation; mean of 3 replicates from 2 independent experiments
# Protocol: as §3, §4
# P. aeruginosa 6186 = experiment: microbe, parasite or virus in culture; format: cell-based, Pseudomonas aeruginosa; conditions: 6186, 24 h
# Protocol: as §3, §4
smiles,measurement,setting,value
"CC[C@H](C)[C@@H]1NC(=O)CNC(=O)[C@H](CCCCN)NC(=O)[C@H](Cc2ccc(O)cc2)NC(=O)[C@@H]2CSSC[C@H](NC1=O)C(=O)N[C@@H](Cc1ccccc1)C(=O)N[C@@H](CCCCN)C(=O)N[C@@H](CCCCN)C(=O)N[C@H](C(=O)N[C@@H](CCCCN)C(N)=O)CSSC[C@H](NC(=O)[C@H](Cc1ccccc1)NC(=O)[C@@H](N)CCCNC(=N)N)C(=O)N[C@@H](Cc1c[nH]c3ccccc13)C(=O)N[C@@H](CCCCN)C(=O)N[C@@H](C(C)C)C(=O)N2 [RP557] (H-RFCWKVCYKGICFKKCK-NH2; disulfide 3-16, 7-12)","EC90, biofilm CFU",[1],6 µg/mL
same,MIC,[2],4 µg/mL
same,MIC,[3],2 µg/mL
same,"EC90, biofilm",[4],8 µg/mL
same,"EC90, biofilm",[5],8 µg/mL
same,Fibroblast cell killing,[6],limited fibroblast cell killing
same,Minimum Inhibitory Concentration (MIC),MRSA 6381,2.0 [4] μM
same,Minimum Inhibitory Concentration (MIC),MRSA ATCC 33592,2.0 [4] μM
same,Minimum Inhibitory Concentration (MIC),MRSA 6313,2.0 [4] μM
same,Minimum Inhibitory Concentration (MIC),S. aureus B-767,2.0 [4] μM
same,Minimum Inhibitory Concentration (MIC),S. aureus 6061,4.0 [8] μM
same,Minimum Inhibitory Concentration (MIC),A. baumannii ATCC 17978,8.0 [16] μM
same,Minimum Inhibitory Concentration (MIC),A. baumannii 6043,4.0 [8] μM
same,Minimum Inhibitory Concentration (MIC),A. baumannii 6838,4.0 [8] μM
same,Degradation after three freeze-thaw cycles,[7],did not show signs of degradation
same,Minimum Inhibitory Concentration (MIC),E. cloacae 6053,4.0 [8] μM
same,Minimum Inhibitory Concentration (MIC),E. cloacae 6054,4.0 [8] μM
same,Minimum Inhibitory Concentration (MIC),C. parapsilosis Y-1763,1.0 [2] μM
same,Minimum Inhibitory Concentration (MIC),C. parapsilosis Y-1761,8.0 [16] μM
same,Degradation in human serum,[8],did not degrade
same,Minimum Inhibitory Concentration (MIC),P. aeruginosa ATCC 19660,2.0 [4] μM
same,Minimum Inhibitory Concentration (MIC),P. aeruginosa ATCC 27853,2.0 [4] μM
same,Minimum Inhibitory Concentration (MIC),P. aeruginosa 6186,2.0 [4] μM
